Laboratory results: US20100015058A1, “RADIOLABELED BBN-RGD HETERODIMERS FOR CANCER TARGETING” (STANFORD UNIVERSITY, priority 2008, published 2010)

Key:
[1] = tested on: PC-3 tumor cells; assay type: cell-based, human
Description: In the cell efflux experiment, PC-3 cells were seeded into 12-well plates at a density of 5×10^5 cells per well for overnight incubation. Cells were rinsed 3 times with PBS and then the appropriate ^18F-labeled peptide tracer was added. The cells were incubated at 37° C. for 2 hr, washed with PBS, and then reincubated with serum-free medium. The cells were washed at different time points (0, 15, 30, 60, 120, 180 min) with PBS and lysed with NaOH-SDS (0.2 M NaOH, 1% SDS). The cell lysate was collected in measurement tubes for counting. Efflux values at different time points were calculated by subtracting retention from 0-min retention, and normalized by dividing the total counts at 0 min.
The cell uptake studies were performed as we have previously described with some modifications (Chen et al., Mol Imaging Biol. (2004) […]; Cai et al., (2006) J. Nuc. Med. 47: 1172-1180, incorporated herein by reference in their entireties). Briefly, PC-3 cells were seeded into 12-well plates at a density of 5×10^5 cells per well and incubated (about 18 kBq/well) with ^68Ga-labeled tracers at 37° C. for 15, 30, 60, and 120 min. Tumor cells were then washed three times with chilled PBS and harvested by trypsinization with 0.25% trypsin/0.02% EDTA (Invitrogen). The cell suspensions were collected and measured in a y counter (Packard, Meriden, Conn.). The cell uptake was expressed as the percent added dose (% AD) after decay correction. Experiments were performed twice with triplicate wells. For efflux studies, ^68Ga-labeled tracers (about 18 kBq/well) were first incubated with PC-3 cells in 12-well plates for 1 h at 37° C. to allow internalization. Then cells were washed twice with PBS, and incubated with cell culture medium for 15, 30, and 60 min. After washing three times with PBS, cells were harvested by trypsinization with 0.25% trypsin/0.02% EDTA. The cell suspensions were collected and measured in a γ counter. Experiments were performed twice with triplicate wells. Data are expressed as percent added dose after decay correction.

[2] = tested on: T47D tumor; assay: MicroPET of T47D tumor-bearing mice; assay type: in vivo; conditions: orthotopic model
Description: The MDA-MB-231, MDA-MB468, BT474, BT-20, T47D, MCF-7 and MDA-MB435 human breast cancer cell lines were all obtained from the American Type Culture Collection (ATCC) and maintained under standard conditions according to ATCC. The MDA-MB435 tumor model was established by orthotopic injections of 5×10^6 cells into the right mammary fat pad of female athymic nude mice. For T47D tumor model establishment, the female nude mice were first subcutaneously implanted with 60-day release 17β-estradiol pellets (Innovative Research of America, Sarasota, Fla.) in the left neck. One day after the estradiol implantation, 1×10^7 T47D cells were orthotopically injected into the right mammary fat pad of the nude mice. The mice were subjected to microPET studies when the tumor volume reached 100-300 mm^3 (2-3 weeks for MDA-MB-435, and 4-5 wk for T47D).
(§1) Quantification of tumor and major organ activity accumulation in the microPET scans was realized by measuring the regions of interest (ROIs) that encompassing the entire organ on the coronal images.

[3] = Small-animal PET of MDA-MB-435 tumor-bearing mice; conditions: female, athymic nude, mouse, in vivo, iv, total radioactivity
Description: The MDA-MB435 tumor model was established by orthotopic injections of 5×10^6 cells into the right mammary fat pad of female athymic nude mice. […] The mice were subjected to microPET studies when the tumor volume reached 100-300 mm^3 (2-3 weeks for MDA-MB-435, and 4-5 wk for T47D).
For static PET, 5-min scans were acquired at 30 min, 1 h, and 2 h after injection. For dynamic PET, 30-min scans (1×30 s, 4×1 min, 1×1.5 min, 4×2 min, 5×3 min; total 15 frames) were started 1 min after injection, and two 5-min static PET images were also acquired at 1 h and 2 h after injection. The images were reconstructed using a two-dimensional ordered subsets expectation maximum (OSEM) algorithm and no correction was applied for attenuation or scatter. […] For each small-animal PET scan, regions of interest (ROIs) were drawn over the tumor, normal tissue, and major organs using vendor software ASI Pro 5.2.4.0 on decay-corrected whole-body coronal images. The maximum radioactivity concentrations (accumulation) within a tumor or an organ were obtained from mean pixel values within the multiple ROI volume, and were converted to megabecquerels per milliliter per minute using a conversion factor. These values were then divided by the administered activity to obtain (assuming a tissue density of 1 g/ml) an image ROI-derived percent injected dose per gram (% ID/g).
as §1

[4] = tested on: PC-3 tumor; assay: Small-animal PET of PC-3 tumor-bearing mice
[5] = in vivo; parameters: species or system mice; conditions: male, athymic nude, mouse, 0.74 MBq, total radioactivity
Description: At 0.5 h and 1 h after injection of the tracer, the tumor-bearing mice were killed and dissected. Blood, tumor, major organs, and tissues were collected and wet-weighed. The radioactivity in the tissue was measured by y counter (Packard). The results are presented as percentage injected dose per gram of tissue (% ID/g). For each mouse, the radioactivity of the tissue samples was calibrated against a known aliquot of the injectate and normalized to a body mass of 20 g. Values were expressed as mean±SD for groups of four animals (n=4 per group).

[6] = in vivo; parameters: species or system mice; conditions: BALB/c, mouse, iv, 370 kBq, total radioactivity, pancreatic uptake
Description: All mice were sacrificed at 1 h after injection of the tracer. Blood, tumor, and major organs and tissues were collected and wet-weighed. Stomach and intestines were cleaned of their contents in this experiment. The radioactivity in the tissue was measured using a g-counter (Packard). The results were presented as percentage injected dose per gram of tissue (% ID/g). Values were expressed as mean 6 SD (n=4/group).

SMILES	T47D tumor uptake ([2]; 0.5 h) [% ID/g]	T47D tumor uptake ([2]; 1 h) [% ID/g]	T47D tumor uptake ([2]; 2 h) [% ID/g]	tissue uptake at 1 h ([3]; MDA-MB-435 tumor uptake) [%ID/g]	tissue uptake at 2 h ([3]; MDA-MB-435 tumor uptake) [%ID/g]	time of peak kidney uptake ([4]; mouse, in vivo)	tissue uptake at 1 h ([5]; kidney uptake, biodistribution) [%ID/g]	tissue uptake at 1 h ([5]; tumor uptake, biodistribution) [%ID/g]	other results
CSCC[C@H](NC(=O)[C@H](CC(C)C)NC(=O)[C@H](Cc1c[nH]cn1)NC(=O)CNC(=O)[C@@H](NC(=O)[C@H](C)NC(=O)[C@H](Cc1c[nH]c2ccccc12)NC(=O)[C@H](CCC(N)=O)NC(=O)CCCCCNC(=O)CC[C@H](NC(=O)COCCOCCOCCNC(=O)c1ccc([18F])cc1)C(=O)NCCCC[C@@H]1NC(=O)[C@@H](Cc2ccc(O)cc2)NC(=O)[C@H](CC(=O)O)NC(=O)CNC(=O)[C@H](CCCNC(=N)N)NC1=O)C(C)C)C(N)=O [^18F-FB-PEG3-RGD-BBN]	2.96±0.53	1.81±0.34	0.91±0.12	1.59 ± 0.65	0.84 ± 0.22	about 10 min	4.87 ± 0.67	4 ± 0.08	efflux ratio [1]: about 40%; tissue uptake at 0.5 h ([3]; MDA-MB-435 tumor uptake): 2.72 ± 0.8 %ID/g; decrease of tumor uptake by BBN blocking ([4]; 1 h, Aca-BBN(7-14) 15 mg/kg, n=3): 65%; decrease of tumor uptake by RGD and BBN blocking ([4]; 1 h, RGD 10 mg/kg and BBN 15 mg/kg, n=3): 90%; decrease of tumor uptake by RGD blocking ([4]; 1 h, c(RGDyK) 10 mg/kg, n=3): 50%; blood % ID/g at 30 min relative to that at 2 min p.i. ([4]; mouse, in vivo): 35%; tissue uptake at 1 h ([5]; uptake values in the blood, heart, liver, spleen, bone, and muscle): < 2 %ID/g
CSCC[C@H](NC(=O)[C@H](CC(C)C)NC(=O)[C@H](Cc1c[nH]cn1)NC(=O)CNC(=O)[C@@H](NC(=O)[C@H](C)NC(=O)[C@H](Cc1c[nH]c2ccccc12)NC(=O)[C@H](CCC(N)=O)NC(=O)CCCCCNC(=O)CC[C@H](NC(=S)Nc1ccc(C[C@H]2CN(CC(=O)O)CCN(CC(=O)O)CCN2CC(=O)O)cc1)C(=O)NCCCC[C@@H]1NC(=O)[C@@H](Cc2ccc(O)cc2)NC(=O)[C@H](CC(=O)O)NC(=O)CNC(=O)[C@H](CCCNC(=N)N)NC1=O)C(C)C)C(N)=O [^64Cu-NOTA-RGD-BBN, metal not drawn]	3.73 ± 0.81	2.33 ± 0.59	1.97 ± 0.32						tissue uptake at 4 h ([3]; MDA-MB-435 tumor uptake): 1.79 ± 0.2 %ID/g; tissue uptake at 24 h ([3]; MDA-MB-435 tumor uptake): 1.29 ± 0.09 %ID/g; tissue uptake at 1 h [6]: 7.03 ± 1.96 %ID/g
CSCC[C@H](NC(=O)[C@H](CC(C)C)NC(=O)[C@H](Cc1c[nH]cn1)NC(=O)CNC(=O)[C@@H](NC(=O)[C@H](C)NC(=O)[C@H](Cc1c[nH]c2ccccc12)NC(=O)[C@H](CCC(N)=O)NC(=O)CCCCCNC(=O)CC[C@H](NC(=S)Nc1ccc(C[C@H]2CN(CC(=O)O)CCN(CC(=O)O)CCN2CC(=O)O)cc1)C(=O)NCCCC[C@@H]1NC(=O)[C@@H](Cc2ccc(O)cc2)NC(=O)[C@H](CC(=O)O)NC(=O)CNC(=O)[C@H](CCCNC(=N)N)NC1=O)C(C)C)C(N)=O [^68Ga-NOTA-RGD-BBN, metal not drawn]				2.24 ± 0.73	1.84 ± 0.72	about 10 min	5.58 ± 0.75	4.76 ± 0.46	cell-associated tracer (cell retention) ([1]; PC-3 cells, 60 min efflux, FIG. 14D): 1.14±0.50 % AD; tissue uptake at 1 h ([3]; 3.7 MBq, MDA-MB435 tumor uptake): 3.23 ± 0.86 %ID/g; tissue uptake at 0.5 h ([5]; kidney uptake, biodistribution): 8.76 ± 1.83 %ID/g; tissue uptake at 0.5 h ([5]; tumor uptake, biodistribution): 5.43 ± 0.54 %ID/g
